In the assay the test system is acetylated α-tubulin in A549 lung adenocarcinoma cells. The assay can be described thus: Acetylated α-tubulin in-cell western (ICW) assay. As to conditions: Homo sapiens, 16 h exposure, relative to 40 μM scriptaid positive control, read-out: EC50 Ac-α-tubulin, A549 cells. It is filed as cell-based. How it is done: Acetylated α-Tubulin and Histone H3 in-Cell Western (ICW) Assays
A549 cells were maintained in DMEM (Life Technologies)+10% FBS+2 mM glutamine & penicillin (10 μg/mL) and streptomycin ([…]. 10,000 A549 cells per well were plated into 96 well tissue culture plates (Corning) and incubated at 37° C. overnight in a humidified atmosphere containing 5% CO2 prior to addition of compounds. Compounds (dissolved in 100% DMSO) were diluted into cell culture media at 2× final assay concentration. 2× compound or DMSO (negative control) were added to cells (final DMSO concentration 0.4%). Untreated control wells received media. For acetylated α-tubulin assays, 40 μM scriptaid was used as a positive control. For acetylated histone H3 assays, 40 μM Trichostatin A (TSA) was used as a positive control. Cells were exposed to compound at 37° C. in a humidified atmosphere containing 5% CO2 for 16 h.
Measurement of the impact of compounds on levels of acetylated α-tubulin and histone H3 was performed using specific antibodies and near-infrared immunofluorescent dyes. Briefly, media was removed from wells of assay plates. Cells were washed once with PBS and fixed in 3.7% formaldehyde PBS solution at room temperature for 20 min. Cells were then permeabilised by washing 5 times in 0.1% triton-X-100 PBS at room temperature with gentle agitation for 5 min per wash. Non-specific antibody staining was blocked by the addition of Odyssey blocking buffer (Li-Cor) for 1.5 h at room temperature with gentle agitation. Cells were then incubated with primary antibody (mouse monoclonal anti-acetylated α-tubulin (clone 6-11B-1), Sigma or rabbit polyclonal anti-acetylated histone H3, Millipore) diluted in Odyssey blocking buffer at 4° C. with gentle shaking overnight (no antibody control and secondary antibody only wells were incubated with Odyssey blocking buffer only). Cells were washed five times with 0.1% tween PBS and labelled with secondary antibody (IR dye 800CW-conjugated goat anti mouse IgG or -goat anti rabbit IgG, Li-Cor) and cell stains Sapphire700 (Li-Cor) and Draq5 (Biostatus) diluted in Odyssey blocking buffer at room temperature in the dark with gentle shaking for 1 h (no antibody control wells were incubated with Odyssey blocking buffer only and secondary antibody only with diluted secondary antibody but no cell stains). Cells were washed with 0.1% Tween PBS five times and scanned using a Li-Cor Odyssey SA plate reader in 700 and 800 nm channels. Acetylated α-tubulin or histone H3 signal was normalised to cell number using the cell stain signal. Percentage increase in acetylated α-tubulin or histone H3 after compound treatment over the mean of DMSO treated controls, relative to scriptaid and TSA positive controls, respectively was calculated. EC50 values were calculated using GraphPad Prism software and nonlinear regression with 0% bottom and 100% top constraints.

pEC50: −log10 of the molar value.

This passage reports EC50 results from patent US20210038607A1, “OXADIAZOLYLTHIOPHENE DERIVATIVES USEFUL AS HISTONE DEACETYLASE INHIBITORS” (Karus Therapeutics Limited, priority 2018, published 2021).

`O=C(c1ccc(N(Cc2ccc(-c3noc(C(F)(F)F)n3)s2)c2cnccn2)nn1)N1C[C@@H]2C[C@H]1CO2` [Example FE, 6-[(1S,4S)-2-Oxa-5-azabicyclo[2.2.1]heptane-5-carbonyl]-N-(pyrazin-2-yl)-N-({5-[5-(trifluoromethyl)-1,2,4-oxadiazol-3-yl]thiophen-2-yl}methyl)pyridazin-3-amine]: the negative-log EC50 (pEC50) is 5.00 to 6.00.

For `O=C(c1ccc(N(Cc2ccc(-c3noc(C(F)(F)F)n3)s2)c2cnccn2)nn1)N1CCC1` [Example FF, 6-(Azetidine-1-carbonyl)-N-(pyrazin-2-yl)-N-({5-[5-(trifluoromethyl)-1,2,4-oxadiazol-3-yl]thiophen-2-yl}methyl)pyridazin-3-amine], the negative-log EC50 (pEC50) was at least 6.00.

Turning to `O=C(c1ccc(N(Cc2ccc(-c3noc(C(F)(F)F)n3)s2)c2cnccn2)nn1)N1CCCCC1` [Example FG, 6-(Piperidine-1-carbonyl)-N-(pyrazin-2-yl)-N-({5-[5-(trifluoromethyl)-1,2,4-oxadiazol-3-yl]thiophen-2-yl}methyl)pyridazin-3-amine], the pEC50 is at least 6.00.

Turning to `O=C(c1ccc(N(Cc2ccc(-c3noc(C(F)(F)F)n3)s2)c2cnccn2)nn1)N1CCC12COC2` [Example FH, 6-{6-Oxa-1-azaspiro[3.3]heptane-1-carbonyl}-N-(pyrazin-2-yl)-N-({5-[5-(trifluoromethyl)-1,2,4-oxadiazol-3-yl]thiophen-2-yl}methyl)pyridazin-3-amine], the pEC50 is at least 6.00.

As to `O=C(c1ccc(N(Cc2ccc(-c3noc(C(F)(F)F)n3)s2)c2cnccn2)nn1)N1CCCC1` [Example FI, N-(Pyrazin-2-yl)-6-(pyrrolidine-1-carbonyl)-N-({5-[5-(trifluoromethyl)-1,2,4-oxadiazol-3-yl]thiophen-2-yl}methyl)pyridazin-3-amine], the pEC50 was at least 6.00.

Regarding `O=C(c1ccc(N(Cc2ccc(-c3noc(C(F)(F)F)n3)s2)c2cnccn2)nn1)N1CCC2(COC2)C1` [Example FJ, 6-{2-Oxa-6-azaspiro[3.4]octane-6-carbonyl}-N-(pyrazin-2-yl)-N-({5-[5-(trifluoromethyl)-1,2,4-oxadiazol-3-yl]thiophen-2-yl}methyl)pyridazin-3-amine], the negative-log EC50 (pEC50) is at least 6.00.

On to `O=C(c1ccc(N(Cc2ccc(-c3noc(C(F)(F)F)n3)s2)c2cnccn2)nn1)N1CC(O)(C(F)(F)F)C1` [Example FK, 1-{6-[(Pyrazin-2-yl)({5-[5-(trifluoromethyl)-1,2,4-oxadiazol-3-yl]thiophen-2-yl}methyl)amino]pyridazine-3-carbonyl}-3-(trifluoromethyl)azetidin-3-ol], for which the pEC50 is at least 6.00.

Turning to `FC(F)(F)c1nc(-c2ccc(CN(c3cnccn3)c3ccc(CN4CCOCC4)nn3)s2)no1` [Example FN, 6-[(Morpholin-4-yl)methyl]-N-(pyrazin-2-yl)-N-({5-[5-(trifluoromethyl)-1,2,4-oxadiazol-3-yl]thiophen-2-yl}methyl)pyridazin-3-amine], the pEC50 is at least 6.00.

In the case of `[O-][S+]1CCN(Cc2ccc(N(Cc3ccc(-c4noc(C(F)(F)F)n4)s3)c3cnccn3)nn2)CC1` [Example FO, 4-({6-[(Pyrazin-2-yl)({5-[5-(trifluoromethyl)-1,2,4-oxadiazol-3-yl]thiophen-2-yl}methyl)amino]pyridazin-3-yl}methyl)-1lambda4-thiomorpholin-1-one], the pEC50 is at least 6.00.

For the molecule `O=C(c1cnnc(N(Cc2ccc(-c3noc(C(F)(F)F)n3)s2)c2cnccn2)c1)N1CCC1` [Example FS, 5-(Azetidine-1-carbonyl)-N-(pyrazin-2-yl)-N-({5-[5-(trifluoromethyl)-1,2,4-oxadiazol-3-yl]thiophen-2-yl}methyl)pyridazin-3-amine], the negative logarithm of the EC50 (pEC50) is at least 6.00.

On to `O=C(c1cnnc(N(Cc2ccc(-c3noc(C(F)(F)F)n3)s2)c2cnccn2)c1)N1CC[S+]([O-])CC1` [Example FU, 4-{6-[(Pyrazin-2-yl)({5-[5-(trifluoromethyl)-1,2,4-oxadiazol-3-yl]thiophen-2-yl}methyl)amino]pyridazine-4-carbonyl}-1lambda4-thiomorpholin-1-one], for which the pEC50 was at least 6.00.

`O=C(c1cnnc(N(Cc2ccc(-c3noc(C(F)(F)F)n3)s2)c2cnccn2)c1)N1C[C@@H]2C[C@H]1CO2` [Example FV, 5-[(1S,4S)-2-Oxa-5-azabicyclo[2.2.1]heptane-5-carbonyl]-N-(pyrazin-2-yl)-N-({5-[5-(trifluoromethyl)-1,2,4-oxadiazol-3-yl]thiophen-2-yl}methyl)pyridazin-3-amine]: the negative-log EC50 (pEC50) was at least 6.00.

Take `O=C(c1cnnc(N(Cc2ccc(-c3noc(C(F)(F)F)n3)s2)c2cnccn2)c1)N1C[C@H]2C[C@@H]1CO2` [Example FW, 5-[(1R,4R)-2-Oxa-5-azabicyclo[2.2.1]heptane-5-carbonyl]-N-(pyrazin-2-yl)-N-({5-[5-(trifluoromethyl)-1,2,4-oxadiazol-3-yl]thiophen-2-yl}methyl)pyridazin-3-amine]: the pEC50 is at least 6.00.

As to `CN(C)C1CN(C(=O)c2cnnc(N(Cc3ccc(-c4noc(C(F)(F)F)n4)s3)c3cnccn3)c2)C1` [Example FX, 5-[3-(Dimethylamino)azetidine-1-carbonyl]-N-(pyrazin-2-yl)-N-({5-[5-(trifluoromethyl)-1,2,4-oxadiazol-3-yl]thiophen-2-yl}methyl)pyridazin-3-amine], the negative logarithm of the EC50 (pEC50) is at least 6.00.

Regarding `O=C(c1cnnc(N(Cc2ccc(-c3noc(C(F)(F)F)n3)s2)c2cnccn2)c1)N1CCC12COC2` [Example GF, 5-{6-Oxa-1-azaspiro[3.3]heptane-1-carbonyl}-N-(pyrazin-2-yl)-N-({5-[5-(trifluoromethyl)-1,2,4-oxadiazol-3-yl]thiophen-2-yl}methyl)pyridazin-3-amine], the pEC50 was at least 6.00.

Turning to `COC1CN(Cc2ccnc(N(Cc3ccc(-c4noc(C(F)(F)F)n4)s3)c3cnccn3)c2)C1` [Example GH, N-{4-[(3-Methoxyazetidin-1-yl)methyl]pyridin-2-yl}-N-({5-[5-(trifluoromethyl)-1,2,4-oxadiazol-3-yl]thiophen-2-yl}methyl)pyrazin-2-amine], the pEC50 was at least 6.00.

`FC(F)(F)c1nc(-c2ccc(CN(c3cnccn3)c3cc(CN4CCOCC4)ccn3)s2)no1` [Example GI, N-{4-[(Morpholin-4-yl)methyl]pyridin-2-yl}-N-({5-[5-(trifluoromethyl)-1,2,4-oxadiazol-3-yl]thiophen-2-yl}methyl)pyrazin-2-amine]: the pEC50 is at least 6.00.

`O=C(c1cnnc(N(Cc2ccc(-c3noc(C(F)(F)F)n3)s2)c2cnccn2)c1)N1CC(C(F)(F)F)C1` [Example GJ, N-(Pyrazin-2-yl)-N-({5-[5-(trifluoromethyl)-1,2,4-oxadiazol-3-yl]thiophen-2-yl}methyl)-5-[3-(trifluoromethyl)azetidine-1-carbonyl]pyridazin-3-amine]: the pEC50 was at least 6.00.

Regarding `O=C(c1cnnc(N(Cc2ccc(-c3noc(C(F)(F)F)n3)s2)c2cnccn2)c1)N1CC(C(F)F)C1` [Example GK, 5-[3-(Difluoromethyl)azetidine-1-carbonyl]-N-(pyrazin-2-yl)-N-({5-[5-(trifluoromethyl)-1,2,4-oxadiazol-3-yl]thiophen-2-yl}methyl)pyridazin-3-amine], the pEC50 was at least 6.00.

`COC1(C(F)(F)F)CN(C(=O)c2cnnc(N(Cc3ccc(-c4noc(C(F)(F)F)n4)s3)c3cnccn3)c2)C1` [Example GL, 5-[3-Methoxy-3-(trifluoromethyl)azetidine-1-carbonyl]-N-(pyrazin-2-yl)-N-({5-[5-(trifluoromethyl)-1,2,4-oxadiazol-3-yl]thiophen-2-yl}methyl)pyridazin-3-amine]: the negative logarithm of the EC50 (pEC50) is at least 6.00.

In the case of `O=C(c1nccnc1N(Cc1ccc(-c2noc(C(F)(F)F)n2)s1)c1cnccn1)N1CCC1` [Example GP, 3-(Azetidine-1-carbonyl)-N-(pyrazin-2-yl)-N-({5-[5-(trifluoromethyl)-1,2,4-oxadiazol-3-yl]thiophen-2-yl}methyl)pyrazin-2-amine], the negative-log EC50 (pEC50) was 5.00 to 6.00.

The term pEC50 denotes the EC50 on a negative log10 scale, so that one unit is a factor of ten.
